Results published in patent publication US10047107B2, “Small molecule analogs of E4orf1” (BOARD OF SUPERVISORS OF LOUISIANA STATE UNIVERSITY AND …, priority 2014, dated 2018).

These molecules were tested on 3T3-L1 pre-adipocytes (assay: Glucose uptake (2-deoxy glucose uptake) by 3T3-L1 pre-adipocytes). Details: 5 μM compound, 24 hours exposure, 3T3-L1 pre-adipocytes, basal conditions, without serum starvation, 2-DG uptake.
Type: cell-based
Experimental: Glucose uptake by 3T3-L1 cells exposed to compounds 1-11 was determined at 5 μM concentration. Cells were exposed to compounds 1-11 for 24 hours and exposure to DMSO was used as the control group. 2-Deoxy glucose (2-DG) uptake was determined using the analog compounds without serum starving the cells prior to determining glucose uptake. Glucose uptake in 3T3-L1 pre-adipocytes was determined by exposing cells to compounds 1-11 for 24 hours without serum starvation. P values presented in the Table indicate statistical significance (p<0.05).
For N#CC(Nc1ccc([B-](F)(F)F)cc1)c1ccc(O)cc1.[K+] (centres unmarked) [Example 2, Potassium (4-((cyano(4-hydroxyphenyl)methyl)amino)phenyl)trifluoroborate], the “Percent increase in glucose uptake in comparison to DMSO treated Control” value (shortened to “Percent increase in glucose uptake”) was “No increase”. In the case of COc1cc(C(C#N)Nc2ccc([B-](F)(F)F)cc2)cc(OC)c1OC.[K+] (centres unmarked) [Example 8, Potassium (4-((cyano(3,4,5-trimethoxyphenyl)methyl)amino)phenyl) trifluoroborate], the “Percent increase in glucose uptake” value is reported as 43%. In the case of N#CC(Nc1ccc([B-](F)(F)F)cc1)c1ccc([B-](F)(F)F)cc1.[K+].[K+] (centres unmarked) [Example 11], the “Percent increase in glucose uptake” value is reported as 53%.

Same assay, conditions: Mus musculus, 3T3-L1, 24 h, read-out: Percent increase in glucose uptake in comparison to DMSO treated Control
N#CC(Nc1ccc(O)cc1)c1ccc([B-](F)(F)F)cc1 (centres unmarked) [Example 10, Potassium (4-(cyano((4-hydroxyphenyl)amino)methyl)phenyl)trifluoroborate] was tested, and the activation at 5 µM was 31%. For N#CC(Nc1ccc([B-](F)(F)F)cc1)c1cccnc1 (centres unmarked) [Example 9, Potassium (4-((cyano(pyridin-3-yl)methyl)amino)phenyl)trifluoroborate], the activation at 5 µM was 54%.

Same assay, conditions: Mus musculus; 5 μM compound, 24 hours exposure, 3T3-L1 pre-adipocytes, basal conditions, without serum starvation, 2-DG uptake; read-out: Percent increase in glucose uptake in comparison to DMSO treated Control
In the case of CC1(C)OB(c2ccc(NC(C#N)c3cccnc3)cc2)OC1(C)C (centres unmarked) [Example 3, 2-(pyridin-3-yl)-2-((4-(4,4,5,5-tetramethyl-1,3,2-dioxaborolan-2-yl)phenyl)amino)acetonitrile], the activation at 5 µM is reported as 9%. Molecule CC1(C)OB(c2ccc(C(C#N)Nc3ccc(O)cc3)cc2)OC1(C)C (centres unmarked) [Example 5, 2-((4-hydroxyphenyl)amino)-2-(4-(4,4,5,5-tetramethyl-1,3,2-dioxaborolan-2-yl)phenyl)acetonitrile] has an activation at 5 µM of 73%. With CC1(C)OB(c2ccc(NC(C#N)c3ccc(O)cc3)cc2)OC1(C)C (centres unmarked) [Example 1, 2-(4-hydroxyphenyl)-2-((4-(4,4,5,5-tetramethyl-1,3,2-dioxaborolan-2-yl)phenyl)amino)acetonitrile] the activation at 5 µM was 24%. CC1=C(C(C#N)Nc2ccc(B3OC(C)(C)C(C)(C)O3)cc2)C(C)(C)CCC1 (centres unmarked) [Example 4, 2-((4-(4,4,5,5-tetramethyl-1,3,2-dioxaborolan-2-yl)phenyl)amino)-2-(2,6,6-trimethylcyclohex-1-en-1-yl)acetonitrile] gave an activation at 5 µM of 33%. Molecule COc1cc(C(C#N)Nc2ccc(B3OC(C)(C)C(C)(C)O3)cc2)cc(OC)c1OC (centres unmarked) [Example 7, 2-((4-(4,4,5,5-tetramethyl-1,3,2-dioxaborolan-2-yl)phenyl)amino)-2-(3,4,5-trimethoxyphenyl)acetonitrile] has an activation at 5 µM of 41%. Work on CC1(C)OB(c2ccc(NC(C#N)c3ccc(B4OC(C)(C)C(C)(C)O4)cc3)cc2)OC1(C)C (centres unmarked) [Example 6, 2-(4-(4,4,5,5-tetramethyl-1,3,2-dioxaborolan-2-yl)phenyl)-2-((4-(4,4,5,5-tetramethyl-1,3,2-dioxaborolan-2-yl)phenyl)amino)acetonitrile] yielded an activation at 5 µM of 17%.
